# Laboratory results reported in patent US20260207765A1, “COVALENTLY-MODIFIED STEROID ACID-PEPTIDES HAVING ENHANCED STABILITY AND/OR BIOLOGICAL ACTIVITY” (priority 2022, published 2026).
# Positions of bridges follow the written chain, without caps; N, C: chain ends. Residues, ends and D or L forms follow the SMILES beside them. Chains are numbered I, II in the order given. No end group written: not given here. *: point of attachment. Chenodeoxycholyl = C[C@H](CCC(=O)*)[C@H]1CC[C@H]2[C@@H]3[C@H](O)C[C@@H]4C[C@H](O)CC[C@]4(C)[C@H]3CC[C@]12C; Cholyl = C[C@H](CCC(=O)*)[C@H]1CC[C@H]2[C@@H]3[C@H](O)C[C@@H]4C[C@H](O)CC[C@]4(C)[C@H]3C[C@H](O)[C@]12C
# Legend:
# EL4 lymphoma cells = experiment: Apoptosis analysis / kill curve by flow cytometry (Annexin-V, PI); assay type: cell-based, mouse
# Protocol: (§1) Apoptosis analysis was conducted by flow-cytometry. Briefly, target cells were first treated then washed. Treated cells were then re-suspended in Annexin-V staining buffer prior to staining with Annexin-V and propidium iodine (PI). Fifteen minutes later, cells were washed prior to analysis using BD FACS™ Diva on CANTOII™.
# EL4 lymphoma = experiment: EL4 tumor model in mice; assay type: in vivo, mouse; details: highest tested dose (190 μM), every 48 h, total of 5 injections
# Protocol: Female C57BL/6 mice (n=10/group) received a SC injection of 5×10^5 EL4 cells at Day 0. […] For all depletion studies, antibodies were injected via the intraperitoneal route at days 0, 3 and 6 at a concentration of 200 μg/injection. Tumor size and animal survival for all of the above listed in vivo studies was followed thereafter using a digital caliber until reaching endpoints (ulceration or a tumor volume ≥1000 mm^3).
# [1] = tested on: wild-type MSC and B3Z reporter system; experiment: Antigen cross-presentation, wild-type MSC and B3Z reporter system; details: 50 μM, sample stored 3 months at −80° C. (thawed)
# [2] = tested on: mesenchymal stromal cells (MSCs); experiment: Apoptosis analysis by flow cytometry on MSCs; assay type: cell-based; details: 190 μM
# Protocol: as §1
# [3] = tested on: bone marrow-derived dendritic cells (DCs); experiment: Apoptosis analysis by flow cytometry on bone marrow-derived dendritic cells; assay type: cell-based, mouse; details: 190 μM
# Protocol: Mouse bone marrow derived DCs (BMDCs) were generated by flushing the whole marrow from mouse femurs using RPMI™ 1640 supplemented with 10% fetal bovine serum (FBS), 50 U/mL Penicillin-Streptomycin, 2 mM L-glutamine, 10 mM HEPES, 1% MEM Non-essential Amino Acids, 1 mM Sodium Pyruvate, 0.5 mM β-mercaptoethanol. Following red blood cell lysis, cells were then cultured in media supplemented with 50 ng/mL murine recombinant GM-CSF. The media was changed on days 2, 4, 6 and 8. On day 9, the media was replaced to include recombinant murine GM-CSF and LPS from Escherichia coli 0111 (1 ng/mL) to stimulate DC maturation. Mature DCs were assessed by flow cytometry for their surface expression of CD3, CD19, NK1.1, CD11c, CD80, CD86, and I-A^b.
# as §1
# macrophages = experiment: Apoptosis analysis by flow cytometry on macrophages; assay type: cell-based; details: 190 μM
# Protocol: as §1
# [4] = tested on: EL4, B16, E0771, CT-26, 4T1, MBA-MD-468, H460 and A549 cancer cells; experiment: Annexin-V cytotoxicity screen of bile acid-SV40 conjugates on eight tumor cell lines; assay type: cell-based; details: 190 μM, all eight tumor cell lines
# Protocol: Annexin-V staining percentage after treatment with different bile acid-SV40 conjugates (190 μM) is shown relative to live cancer cells (i.e., PBS treated cancer cells) by flow cytometry. Cancer cell lines tested were EL4 lymphoma, B16 melanoma, E0771 breast cancer, CT-26 colon carcinoma, 4T1 breast cancer, MBA-MD-468 triple-negative breast cancer, human H460 lung cancer, and human A549 lung cancer. […] SV40 alone was also tested as a negative control.
# as §1
# [5] = tested on: JIMT-1 breast cancer cells; experiment: Cytotoxicity of steroid acid-peptide conjugates in JIMT-1 cells; assay type: cell-based; details: JIMT-1, FIGS. 21A and 21B
# Protocol: as §1
# 50 mg of CDCA-C-SV40 monomers (or other steroid acid-peptide monomers) were resuspended in 200-500 μL of DMSO. 10 eq of N,N-Diisopropylethylamine (DIPEA) was added to the mixture and incubated in a thermomixer at 37° C. with agitation (1000 rpm) overnight, enabling dimerization of the monomers via their N-terminal cysteine thiol groups to produce (CDCA-C-SV40)2 or other dimers. The samples were then analyzed by UPLC-MS to evaluate dimer formation efficiency. Cell toxicity was evaluated via a Cell Toxicity assay (PrestoBlue™).
compound,measurement,setting,value
"SV40 NLS: nuclear localization signal from SV40 large T-antigen (PKKKRKV; SEQ ID NO: 2), tested alone as negative control [reference compound]",cytotoxic activity,EL4 lymphoma cells,did not exhibit any cytotoxic activity
CC[C@H](C)[C@H](NC(=O)[C@H](CCCNC(=N)N)NC(=O)[C@H](CCCCN)NC(=O)[C@H](CCSC)NC(=O)[C@H](CC(C)C)NC(=O)[C@H](Cc1c[nH]cn1)NC(=O)[C@@H](NC(=O)[C@@H](NC(=O)[C@H](Cc1ccc(O)cc1)NC(=O)CNC(=O)[C@H](C)NC(=O)[C@@H](NC(=O)[C@H](CCCCN)NC(=O)[C@H](CC(N)=O)NC(=O)[C@H](CCCNC(=N)N)NC(=O)[C@H](CC(C)C)NC(=O)[C@H](CCCCN)NC(=O)[C@H](CCCCN)NC(=O)[C@H](CO)NC(=O)[C@H](CS)NC(=O)CC[C@@H](C)[C@H]1CC[C@H]2[C@@H]3[C@H](O)C[C@@H]4C[C@H](O)CC[C@]4(C)[C@H]3C[C@H](O)[C@]12C)[C@@H](C)CC)C(C)C)[C@@H](C)O)C(=O)O [CA-C-NLS3 RPS17] (Cholyl-CSKKLRNKIAGYVTHLMKRI-OH; N-terminus and C-terminus assumed),survival at day 40,EL4 lymphoma,20%
same,tumor growth,EL4 lymphoma,significantly delayed tumor growth
CSCC[C@H](NC(=O)[C@H](CS)NC(=O)CC[C@@H](C)[C@H]1CC[C@H]2[C@@H]3[C@H](O)C[C@@H]4C[C@H](O)CC[C@]4(C)[C@H]3C[C@H](O)[C@]12C)C(=O)NCC(=O)N[C@@H](CCCNC(=N)N)C(=O)N[C@H](C(=O)N[C@@H](CCCNC(=N)N)C(=O)N[C@H](C(=O)N[C@@H](CCCCN)C(=O)N[C@H](C(=O)N[C@H](C(=O)N[C@@H](CCCCN)C(=O)N[C@@H](CCCCN)C(=O)N[C@@H](C)C(=O)N[C@@H](C)C(=O)NCC(=O)NCC(=O)O)C(C)C)[C@@H](C)O)[C@@H](C)O)C(C)C [CA-C-NLS1 RPS17] (Cholyl-CMGRVRTKTVKKAAGG-OH; N-terminus and C-terminus assumed),survival at day 40,EL4 lymphoma,20%
same,tumor growth,EL4 lymphoma,significantly delayed tumor growth
CA-C-hnRNPA1: cholic acid conjugated to C-hnRNPA1 M9 NLS peptide (SEQ ID NO: 4) (Cholyl-CSNFGPMKGGNFGGRSSGPY),antigen presentation,[1],reduced antigen presentation activity
CC(C)[C@H](NC(=O)[C@H](CCCCN)NC(=O)[C@H](CCCNC(=N)N)NC(=O)[C@H](CCCCN)NC(=O)[C@H](CCCCN)NC(=O)[C@H](CCCCN)NC(=O)[C@@H]1CCCN1C(=O)CNC(=O)[C@H](Cc1ccc(O)cc1)NC(=O)CNC(=O)[C@H](CS)NC(=O)CC[C@@H](C)[C@H]1CC[C@H]2[C@@H]3[C@H](O)C[C@@H]4C[C@H](O)CC[C@]4(C)[C@H]3C[C@H](O)[C@]12C)C(=O)NCC(=O)NCC(=O)O [CA-C-SV40] (Cholyl-CGYGPKKKRKVGG-OH),apoptosis in normal or healthy cells,[2],induce apoptosis
same,apoptosis in normal or healthy cells,[3],induce apoptosis
same,apoptosis in normal or healthy cells,macrophages,induce apoptosis
same,cytotoxicity of Cholic acid-NLS conjugates,"EL4 lymphoma cells; 190 μM, EL4, FIG. 6",notably higher
same,EC50,"EL4 lymphoma cells; EL4 lymphoma cells, flow cytometry, read-out: EC50 (cell death / kill curve)",95.9 µM
same,survival at day 40,EL4 lymphoma,60%
"CC(=O)N[C@@H](CS)C(=O)O [NAC, N-acetylcysteine, reference compound]",rescue from CA-C-SV40-triggered cell death,EL4 lymphoma cells; CA-C-SV40 at EC50 dose,completely blocked apoptosis
CC(C)[C@H](NC(=O)[C@H](CCCCN)NC(=O)[C@H](CCCNC(=N)N)NC(=O)[C@H](CCCCN)NC(=O)[C@H](CCCCN)NC(=O)[C@H](CCCCN)NC(=O)[C@@H]1CCCN1C(=O)CNC(=O)[C@H](Cc1ccc(O)cc1)NC(=O)CNC(=O)[C@H](CS)NC(=O)CC[C@@H](C)[C@H]1CC[C@H]2[C@@H]3[C@H](O)C[C@@H]4C[C@H](O)CC[C@]4(C)[C@H]3CC[C@]12C)C(=O)NCC(=O)NCC(=O)O [CDCA-C-SV40] (Chenodeoxycholyl-CGYGPKKKRKVGG-OH),cytotoxic activity,[4],100%
CC(C)[C@H](NC(=O)[C@H](CCCCN)NC(=O)CNC(=O)[C@H](Cc1ccc(O)cc1)NC(=O)CNC(=O)[C@H](CO)NC(=O)[C@H](CSSC[C@H](NC(=O)CC[C@@H](C)[C@H]1CC[C@H]2[C@@H]3[C@H](O)C[C@@H]4C[C@H](O)CC[C@]4(C)[C@H]3CC[C@]12C)C(=O)N[C@@H](CO)C(=O)NCC(=O)N[C@@H](Cc1ccc(O)cc1)C(=O)NCC(=O)N[C@@H](CCCCN)C(=O)N[C@H](C(=O)N[C@@H](CO)C(=O)N[C@@H](CCCNC(=N)N)C(=O)N[C@@H](CCCNC(=N)N)C(=O)NCC(=O)NCC(=O)N[C@@H](Cc1c[nH]cn1)C(=O)N[C@@H](CCC(N)=O)C(=O)N[C@@H](CC(N)=O)C(=O)N[C@@H](CO)C(=O)N[C@@H](Cc1ccc(O)cc1)C(=O)N[C@@H](CCCCN)C(=O)N1CCC[C@H]1C(=O)N[C@@H](Cc1ccc(O)cc1)C(=O)O)C(C)C)NC(=O)CC[C@@H](C)[C@H]1CC[C@H]2[C@@H]3[C@H](O)C[C@@H]4C[C@H](O)CC[C@]4(C)[C@H]3CC[C@]12C)C(=O)N[C@@H](CO)C(=O)N[C@@H](CCCNC(=N)N)C(=O)N[C@@H](CCCNC(=N)N)C(=O)NCC(=O)NCC(=O)N[C@@H](Cc1c[nH]cn1)C(=O)N[C@@H](CCC(N)=O)C(=O)N[C@@H](CC(N)=O)C(=O)N[C@@H](CO)C(=O)N[C@@H](Cc1ccc(O)cc1)C(=O)N[C@@H](CCCCN)C(=O)N1CCC[C@H]1C(=O)N[C@@H](Cc1ccc(O)cc1)C(=O)O [(CDCA-C-hnRNP D NLS)2] (I: Chenodeoxycholyl-CSGYGKVSRRGGHQNSYKPY-OH / II: Chenodeoxycholyl-CSGYGKVSRRGGHQNSYKPY-OH; disulfide I:1-II:1),cytotoxicity of dimerized version versus monomer,[5],enhancement of cytotoxicity
